Square brackets hold non-standard residues; d marks the D form. Ends that are not written are not given here. Peptide text beside a SMILES is read from it. * marks the point of attachment. Nicotinoyl = O=C(c1cccnc1)*; βAla = NCCC(=O)O
What was measured:
[1] = test system: melanin movement from melanocytes to keratinocytes; details: cited from earlier work
B16F10 cells = assay: Skin whitening effect: melanogenesis at various concentrations in α-MSH-treated melanocytes; assay type: cell-based, mouse; details: 1, 10, 100 and 250 μg/ml, 3 days
Description: Cells were treated with various concentrations of niacin-peptide, followed by measuring activity in inhibition of melanogenesis. The mouse melanocytes were cultured at 37° C. in 5% CO2 atmosphere in DMEM supplemented with 10% FBS. The cells were seeded in each well of a 24-well plate (1×10^5 cells/well) and their attachment was verified. Cells were incubated with each test group for 3 days: (a) only solvent as negative control; (b) 20 μg/ml α-MSH as a positive control; (c) 20 μg/ml α-MSH plus 1, 10, 100 and 250 μg/ml niacin-peptides (NA-PG, NAPS, NA-ET and NA-VS); (d) 1, 10, 100 and 250 μg/ml arbutin; and (e) 1, 10, 100 and 250 μg/ml AA2G.
FIG. 5 is images of melanocytes representing treatment effects of NA-PS and PS peptides on melanogenesis decrease rate in a concentration dependent manner.
For analyzing the release amount of melanin, the absorbance values of the culture medium were measured at 490 nm.

[2] = Stability of niacin-peptides in human serum; assay type: in vitro ADME; details: 100 μg/ml, incubated with human serum for 10 hr
Description: The prepared solutions were introduced into glass vials and kept to stand at 40° C. for 7, 14, 21, 28, 35, 42 and 60 days. […] The present inventors tested stability of niacin-peptides in human serum. Niacin-peptides (nicotinoyl-PS, 100 μg/ml) or niacin-unlinked peptide (PS, 100 μg/ml) was incubated with human serum for 10 hr, and the amount of residual peptides was measured at every hour. According to the result of the comparative stability experiment, when nicotinoyl-PS (nicotinoyl group linked to the N-terminal of PS peptide) was incubated with the serum for 10 hr, the stability of niacin-peptides was 20% higher than the control group (niacin-unlinked peptide).

B16F10 melanocytes = assay: Screening of niacin-peptides: inhibition of melanogenesis against α-MSH; assay type: cell-based, mouse; set-up: key: relative to absorbance (490 nm) of α-MSH-only positive control; details: 20 μg/ml α-MSH plus 10 ng/ml peptide, 3 days, UV 490 nm, α-MSH-only positive control as standard
Description: The present inventors screened skin whitening peptides by measuring decrease in melanogenesis using the niacin-peptide libraries prepared in Example 1. B16F10 melanocytes (the Korean Cell Line Bank) were incubated with α-MSH to induce melanogenesis and the inhibition of melanogenesis by the peptide libraries was analyzed. The mouse melanocytes were cultured at 37° C. in 5% CO2 atmosphere in DMEM supplemented with 10% FBS. The cells were seeded in each well of a 96-well plate (5×10^4 cells/well) and their attachment was verified. Afterwards, the control group was incubated with only solvent, the positive control group was incubated with 20 μg/ml of α-MSH and the other wells was incubated with 20 μg/ml of α-MSH and 10 ng/ml of peptides for 3 days.
The inhibition rates of melanogenesis by treatment of each peptide prepared in Example 1 were measured at UV 490 nm. The inhibition rates were calculated using the absorbance value of the positive control group incubated with only α-MSH as a standard, which are summarized in Table 1. The candidate peptides analyzed to show excellent screening results were selected and synthesized in a 100-μmole scale for further experiments. FIG. 1 represents the screening result of niacin-peptides.

Molecule | Screening value: Inhibition of melanogenesis against α-MSH (B16F10 melanocytes) | other results
NC(=O)c1cccnc1 [Niacinamide] | – | decrease of melanin movement from melanocytes to keratinocytes [1]: 68%
OC[C@H]1O[C@@H](Oc2ccc(O)cc2)[C@H](O)[C@@H](O)[C@@H]1O [arbutin] | – | cell number compared with the α-MSH treated group (B16F10 cells): significantly decreased
O=C(O)[C@H](CO)NC(=O)[C@@H]1CCCN1C(=O)c1cccnc1 [nicotinoyl-PS] (Nicotinoyl-Pro-Ser-OH) | – | stability higher than the control group (niacin-unlinked peptide PS) [2]: 20%
nicotinoyl-AHK (Nicotinoyl-Ala-His-Lys) | 0.8 | –
nicotinoyl-DKYV | 0.87 | –
nicotinoyl-EEMQRR-NH2 (Nicotinoyl-EEMQRR-NH2; SMILES CSCC[C@H](NC(=O)[C@H](CCC(=O)O)NC(=O)[C@H](CCC(=O)O)NC(=O)c1cccnc1)C(=O)N[C@@H](CCC(N)=O)C(=O)N[C@@H](CCCNC(=N)N)C(=O)N[C@@H](CCCNC(=N)N)C(N)=O) | 0.86 | –
nicotinoyl-FWY (Nicotinoyl-Phe-Trp-Tyr) | 0.61 | –
nicotinoyl-GEPG (Nicotinoyl-GEPG) | 0.96 | –
nicotinoyl-GHR (Nicotinoyl-Gly-His-Arg) | 0.75 | –
nicotinoyl-GPHyp | 0.89 | –
nicotinoyl-GPQGPQ (Nicotinoyl-GPQGPQ) | 0.88 | –
nicotinoyl-GPRPA-NH2 (Nicotinoyl-GPRPA-NH2; SMILES C[C@H](NC(=O)[C@@H]1CCCN1C(=O)[C@H](CCCNC(=N)N)NC(=O)[C@@H]1CCCN1C(=O)CNC(=O)c1cccnc1)C(N)=O) | 0.7 | –
nicotinoyl-GQPR (Nicotinoyl-GQPR) | 0.83 | –
nicotinoyl-GRKG (Nicotinoyl-GRKG) | 0.93 | –
nicotinoyl-ISELGW (Nicotinoyl-ISELGW) | 0.64 | –
nicotinoyl-KAKA (Nicotinoyl-KAKA) | 0.87 | –
nicotinoyl-KLAKK (Nicotinoyl-KLAKK) | 0.96 | –
nicotinoyl-KRGDR (Nicotinoyl-KRGDR) | 0.92 | –
nicotinoyl-KRGKP (Nicotinoyl-KRGKP) | 0.84 | –

Molecule | Screening value: Inhibition of melanogenesis against α-MSH (B16F10 melanocytes) | other results
nicotinoyl-KTTKS (Nicotinoyl-KTTKS) | 0.92 | –
nicotinoyl-KVARP (Nicotinoyl-KVARP) | 0.96 | –
nicotinoyl-KVK (Nicotinoyl-Lys-Val-Lys) | 1.01 | –
nicotinoyl-NP | 0.8 | –
nicotinoyl-PLG-NH2 (Nicotinoyl-Pro-Leu-Gly-NH2; SMILES CC(C)C[C@H](NC(=O)[C@@H]1CCCN1C(=O)c1cccnc1)C(=O)NCC(N)=O) | 0.92 | –
nicotinoyl-RKDVY (Nicotinoyl-RKDVY) | 0.87 | –
nicotinoyl-SIKVAV (Nicotinoyl-SIKVAV) | 0.72 | –
nicotinoyl-SSNA (Nicotinoyl-SSNA) | 0.71 | –
nicotinoyl-TYR (Nicotinoyl-Thr-Tyr-Arg) | 0.72 | –
nicotinoyl-VEPIPY (Nicotinoyl-VEPIPY) | 0.81 | –
nicotinoyl-VGVAPG (Nicotinoyl-VGVAPG) | 0.95 | –
nicotinoyl-VPAA (Nicotinoyl-VPAA) | 0.85 | –
nicotinoyl-YGGFL | 0.78 | –
nicotinoyl-YGGFM (Nicotinoyl-YGGFM) | 0.81 | –
nicotinoyl-YGY (Nicotinoyl-Tyr-Gly-Tyr) | 0.69 | –
nicotinoyl-YGYTGA (Nicotinoyl-YGYTGA) | 0.95 | –
nicotinoyl-YPFF-NH2 (Nicotinoyl-YPFF-NH2; SMILES NC(=O)[C@H](Cc1ccccc1)NC(=O)[C@H](Cc1ccccc1)NC(=O)[C@@H]1CCCN1C(=O)[C@H](Cc1ccc(O)cc1)NC(=O)c1cccnc1) | 0.85 | –
nicotinoyl-YT | 0.75 | –
nicotinoyl-beta-AHSH (Nicotinoyl-[βAla]HSH) | 0.82 | –

Source: patent publication US9456972B2, “Niacin-peptide having skin whitening activity and use for same” (priority 2011, dated 2016)
